Data taken from patent EP4635500A1, “THERAPEUTIC AGENT FOR BACTERIAL INFECTION” (Sumitomo Pharma Co., Ltd., priority 2022, dated 2024).
Like-named read-outs stand apart in the source and are kept apart here.

Tests used:
Klebsiella pneumoniae = assay: MIC, broth microdilution, standard strains and Japanese clinical isolates (Example 5, Table 4); type: cell-based
A. baumannii = assay: MIC, broth microdilution, CDC/FDA Antibiotic Resistance Isolate Bank (Example 7, Tables 9, 13, 14); type: cell-based, Acinetobacter baumannii; details: for MIC: read-out: MIC
CRE and CPE strains = assay: MIC, broth microdilution, standard strains and Japanese clinical isolates (Example 5, Table 4 continued; organism of each KUB strain not given); type: cell-based
Enterobacterales = assay: MIC, broth microdilution, CDC/FDA Antibiotic Resistance Isolate Bank (Example 7, Tables 8, 11, 12); type: cell-based; details: for MIC: read-out: MIC
[1] = MIC distribution, metallo-β-lactamase-producing A. baumannii, inhibitor µg/mL in parentheses

CC(C)(O/N=C(\C(=O)N[C@@H]1C(=O)N2C(C(=O)[O-])=C(C[N+]3(CCNC(=O)c4ccc(O)c(O)c4Cl)CCCC3)CS[C@H]12)c1csc(N)n1)C(=O)O [Cefiderocol, cefiderocol]
0.5 µg/mL: MIC (Klebsiella pneumoniae; ATCCBAA2342, KUB4003 Klebsiella pneumoniae ATCC BAA-2342, KPC-3) | MIC (A. baumannii; Acinetobacter baumannii, A. baumannii KUB No. 5598, AR Bank #101, OXA-24, OXA-65) | MIC (A. baumannii; Acinetobacter baumannii, A. baumannii KUB No. 5708, AR Bank #275, OXA-23, OXA-66) | MIC (A. baumannii; Acinetobacter baumannii, A. baumannii KUB No. 5711, AR Bank #278, OXA-23, OXA-66) | MIC (A. baumannii; Acinetobacter baumannii, A. baumannii KUB No. 5715, AR Bank #282, OXA-23, OXA-66) | MIC (A. baumannii; Acinetobacter baumannii, KUB No. 5719, AR Bank #286) | MIC (A. baumannii; Acinetobacter baumannii, KUB No. 5720, AR Bank #287) | MIC (A. baumannii; Acinetobacter baumannii, KUB No. 5723, AR Bank #290) | MIC (A. baumannii; Acinetobacter baumannii, KUB No. 5724, AR Bank #291) | MIC (A. baumannii; Acinetobacter baumannii, KUB No. 5725, AR Bank #292) | MIC (A. baumannii; Acinetobacter baumannii, KUB No. 5726, AR Bank #293) | MIC (A. baumannii; Acinetobacter baumannii, KUB No. 5727, AR Bank #294) | MIC (A. baumannii; Acinetobacter baumannii, KUB No. 5728, AR Bank #295) | MIC (A. baumannii; Acinetobacter baumannii, KUB No. 5729, AR Bank #296) | MIC (A. baumannii; Acinetobacter baumannii, KUB No. 5731, AR Bank #298) | MIC (A. baumannii; Acinetobacter baumannii, KUB No. 5744, AR Bank #311) | MIC50 (A. baumannii; Acinetobacter baumannii, 55 isolates of A. baumannii, read-out: MIC50) | MIC50 (Enterobacterales; 154 strains of Enterobacterales, read-out: MIC50) | MIC (Enterobacterales; Enterobacter cloacae, Enterobacter cloacae complex, KUB No. 5661, AR Bank # 164) | MIC (Enterobacterales; Enterobacter cloacae, Enterobacter cloacae group, KUB No. 5629, AR Bank # 132) | MIC (Enterobacterales; Enterobacter cloacae, KUB No. 5535, AR Bank# 38) | MIC (Enterobacterales; Escherichia coli, Escherichia coli KUB No. 5795, AR Bank #451) | MIC (Enterobacterales; Escherichia coli, KUB No. 5581, AR Bank # 84)
1 µg/mL: MIC (Klebsiella pneumoniae; ATCCBAA1904, KUB3999 Klebsiella pneumoniae ATCC BAA-1904, KPC-3) | MIC (Klebsiella pneumoniae; KUB3633 Klebsiella pneumoniae Clinical isolate, IMP-6) | MIC (A. baumannii; Acinetobacter baumannii, A. baumannii KUB No. 5718, AR Bank #285, OXA-24, OXA-65) | MIC (A. baumannii; Acinetobacter baumannii, KUB No. 5734, AR Bank #301) | MIC (A. baumannii; Acinetobacter baumannii, KUB No. 5739, AR Bank #306) | MIC (A. baumannii; Acinetobacter baumannii, KUB No. 5746, AR Bank #313) | MIC (CRE and CPE strains; strain KUB3151, carbapenemase gene IMP-1, read-out: MIC) | MIC80 (Enterobacterales; 154 strains of Enterobacterales, read-out: MIC80) | MIC (Enterobacterales; Citrobacter freundii, KUB No. 5654, AR Bank # 157) | MIC (Enterobacterales; Enterobacter cloacae, Enterobacter cloacae KUB No. 5807, AR Bank #501) | MIC (Enterobacterales; Enterobacter cloacae, Enterobacter cloacae KUB No. 5808, AR Bank #502) | MIC (Enterobacterales; Enterobacter cloacae, KUB No. 5763, AR Bank # 367) | MIC (Enterobacterales; Escherichia coli, Escherichia coli KUB No. 5796, AR Bank #452) | MIC (Enterobacterales; Escherichia coli, KUB No. 5566, AR Bank # 69)
≤ 0.06 µg/mL: MIC (A. baumannii; Acinetobacter baumannii, A. baumannii KUB No. 5567, AR Bank #70, OXA-58, OXA-100) | MIC (A. baumannii; Acinetobacter baumannii, KUB No. 5737, AR Bank #304) | MIC (CRE and CPE strains; strain KUB3150, carbapenemase gene OXA-48, read-out: MIC) | MIC (Enterobacterales; Escherichia coli, KUB No. 5558, AR Bank # 61) | MIC (Enterobacterales; Escherichia coli, KUB No. 5574, AR Bank # 77)
16 µg/mL: MIC (A. baumannii; Acinetobacter baumannii, A. baumannii KUB No. 5580, AR Bank #83, OXA-23, OXA-69, NDM-1)
≤0.06 to 16 µg/mL: MICrange (A. baumannii; 55 isolates of A. baumannii)
2: Number of isolates at MIC 2 µg/mL (A. baumannii; [1])
8 µg/mL: MIC (Klebsiella pneumoniae; ATCCBAA2472, KUB4008 Klebsiella pneumoniae subsp. Pneumoniae ATCC BAA-2472, NDM-1) | MIC (Klebsiella pneumoniae; ATCCBAA2473, KUB4009 Klebsiella pneumoniae ATCC BAA-2473, NDM-1) | MIC (A. baumannii; Acinetobacter baumannii, A. baumannii KUB No. 5709, AR Bank #276, no carbapenemase genes (-)) | MIC (A. baumannii; Acinetobacter baumannii, KUB No. 5732, AR Bank #299) | MIC (CRE and CPE strains; strain KUB3157, carbapenemase gene NDM-1)
4 µg/mL: MIC (A. baumannii; Acinetobacter baumannii, A. baumannii KUB No. 5575, AR Bank #78, OXA-71) | MIC (A. baumannii; Acinetobacter baumannii, A. baumannii KUB No. 5710, AR Bank #277, OXA-24, OXA-65) | MIC (A. baumannii; Acinetobacter baumannii, KUB No. 5735, AR Bank #302) | MIC (A. baumannii; Acinetobacter baumannii, KUB No. 5742, AR Bank #309) | MIC90 (A. baumannii; Acinetobacter baumannii, 55 isolates of A. baumannii, read-out: MIC90) | MIC (CRE and CPE strains; strain KUB3154, carbapenemase gene KPC-2, read-out: MIC) | MIC (Enterobacterales; Enterobacter cloacae, KUB No. 5557, AR Bank# 60) | MIC (Enterobacterales; Enterobacter cloacae, KUB No. 5778, AR Bank # 432) | MIC (Enterobacterales; Enterobacter cloaccae, KUB No. 5651, AR Bank # 154)
1: Number of isolates at MIC 16 µg/mL (A. baumannii; [1])
0.12 µg/mL: MIC (A. baumannii; Acinetobacter baumannii, A. baumannii KUB No. 5599, AR Bank #102, OXA-66) | MIC (A. baumannii; Acinetobacter baumannii, A. baumannii KUB No. 5706, AR Bank #273, OXA-23, OXA-66) | MIC (A. baumannii; Acinetobacter baumannii, A. baumannii KUB No. 5707, AR Bank #274, OXA-66, OXA-72) | MIC (A. baumannii; Acinetobacter baumannii, A. baumannii KUB No. 5714, AR Bank #281, OXA-82) | MIC (A. baumannii; Acinetobacter baumannii, KUB No. 5722, AR Bank #259) | MIC (A. baumannii; Acinetobacter baumannii, KUB No. 5730, AR Bank #297) | MIC (A. baumannii; Acinetobacter baumannii, KUB No. 5736, AR Bank #303) | MIC (A. baumannii; Acinetobacter baumannii, KUB No. 5740, AR Bank #307) | MIC (CRE and CPE strains; strain KUB3164, carbapenemase gene IMP-6) | MIC (Enterobacterales; Enterobacter cloacae, KUB No. 5550, AR Bank# 53) | MIC (Enterobacterales; Escherichia coli, KUB No. 5564, AR Bank # 67) | MIC (Enterobacterales; Escherichia coli, KUB No. 5582, AR Bank # 85) | MIC (Enterobacterales; Escherichia coli, KUB No. 5583, AR Bank # 86)
0.25 µg/mL: MIC (Klebsiella pneumoniae; ATCCBAA1900, KUB3998 Klebsiella pneumoniae ATCC BAA-1900, KPC-3) | MIC (Klebsiella pneumoniae; ATCCBAA2343, KUB4004 Klebsiella pneumoniae ATCC BAA-2343, KPC-3) | MIC (A. baumannii; Acinetobacter baumannii, A. baumannii KUB No. 5712, AR Bank #279, OXA-23, OXA-66) | MIC (A. baumannii; Acinetobacter baumannii, A. baumannii KUB No. 5713, AR Bank #280, OXA-66) | MIC (A. baumannii; Acinetobacter baumannii, A. baumannii KUB No. 5716, AR Bank #283, OXA-23, OXA-66) | MIC (A. baumannii; Acinetobacter baumannii, A. baumannii KUB No. 5717, AR Bank #284, OXA-24, OXA-65) | MIC (A. baumannii; Acinetobacter baumannii, KUB No. 5721, AR Bank #288) | MIC (A. baumannii; Acinetobacter baumannii, KUB No. 5733, AR Bank #300) | MIC (A. baumannii; Acinetobacter baumannii, KUB No. 5738, AR Bank #305) | MIC (A. baumannii; Acinetobacter baumannii, KUB No. 5741, AR Bank #308) | MIC (A. baumannii; Acinetobacter baumannii, KUB No. 5745, AR Bank #312) | MIC (Enterobacterales; Enterobacter cloacae, KUB No. 5562, AR Bank # 65) | MIC (Enterobacterales; Enterobacter cloacae, KUB No. 5569, AR Bank # 72) | MIC (Enterobacterales; Enterobacter cloacae, KUB No. 5570, AR Bank # 73) | MIC (Enterobacterales; Enterobacter cloacae, KUB No. 5590, AR Bank # 93) | MIC (Enterobacterales; Enterobacter cloacae, KUB No. 5660, AR Bank # 163) | MIC (Enterobacterales; Enterobacter cloacae, KUB No. 5761, AR Bank # 365) | MIC (Enterobacterales; Enterobacter cloacae, KUB No. 5762, AR Bank # 366) | MIC (Enterobacterales; Enterobacter clooreae, KUB No. 5633, AR Bank # 136) | MIC (Enterobacterales; Escherichia coli, Escherichia coli KUB No. 5783, AR Bank #437) | MIC (Enterobacterales; Escherichia coli, Escherichia coli KUB No. 5794, AR Bank #450) | MIC (Enterobacterales; Escherichia coli, KUB No. 5578, AR Bank # 81)
2 µg/mL: MIC (Klebsiella pneumoniae; ATCCBAA1898, KUB3996 Klebsiella pneumoniae ATCC BAA-1898, KPC-2) | MIC (Klebsiella pneumoniae; ATCCBAA1899, KUB3997 Klebsiella pneumoniae ATCC BAA-1899, KPC-2) | MIC (Klebsiella pneumoniae; ATCCBAA2078, KUB4000 Klebsiella pneumoniae ATCC BAA-2078, KPC-3) | MIC (Klebsiella pneumoniae; ATCCBAA2146, KUB4011 Klebsiella pneumoniae ATCC BAA-2146, NDM-1) | MIC (Klebsiella pneumoniae; KUB3631 Klebsiella pneumoniae Clinical isolate, IMP-1) | MIC (Klebsiella pneumoniae; KUB3634 Klebsiella pneumoniae Clinical isolate, IMP-6) | MIC (A. baumannii; Acinetobacter baumannii, A. baumannii KUB No. 5585, AR Bank #88, OXA-64, NDM-1) | MIC (A. baumannii; Acinetobacter baumannii, KUB No. 5743, AR Bank #310) | MIC80 (A. baumannii; Acinetobacter baumannii, 55 isolates of A. baumannii, read-out: MIC80) | MIC (CRE and CPE strains; strain KUB3149, carbapenemase gene NDM-1, read-out: MIC) | MIC (CRE and CPE strains; strain KUB3152, carbapenemase gene KPC-2, read-out: MIC) | MIC90 (Enterobacterales; 154 strains of Enterobacterales, read-out: MIC90) | MIC (Enterobacterales; Enterobacter cloacae, Enterobacter cloacae KUB No. 5792, AR Bank #448) | MIC (Enterobacterales; Enterobacter cloacae, KUB No. 5547, AR Bank# 50) | MIC (Enterobacterales; Escherichia coli, Escherichia coli KUB No. 5803, AR Bank #861)
